In patent publication US5958978A, “Specific cyclooxygenase 2 inhibitor and anti-inflammatory agent” (Kabushiki Kaisha Yakult Honsha, priority 1995, dated 1999):
Read-outs that look alike come from different tables or passages of the source.

Key:
[1] = tested on: Production of Prostaglandin E2 by Stimulation of Human Synovial Cell by IL-1β; test: Effect on production of prostaglandin E2 by stimulation of human synovial cell by IL-1β; format: cell-based; conditions: for inhibition at 0.001 µM / inhibition at 0.01 µM / inhibition at 0.1 µM / inhibition at 1 µM / inhibition at 10 µM / inhibition at 100 µM: Synovial cell, human synovial cells, IL-1β, 22 hours, read-out: Percent inhibition of prostaglandin E2
Procedure: (Effect of 4'-Hydroxydiclofenac on Production of Prostaglandin E2 by Stimulation of Human Synovial Cell by IL-1β)
Synovial tissue obtained from a patient suffering from chronic articular rheumatism was placed in a Petri dish, cut and shredded, to which a 0.2% solution of collagenase was added. The mixture was left over for 2 hours under conditions of 5% CO2 and 37° C. An equiamount of a 0.25% solution of trypsin was further added, and the resultant mixture was left over for 2 hours. After cells isolated were collected and centrifuged (170 ×g, 10 minutes) to remove the supernatant liquid thereof, a medium [obtained by adding 10% FCS (fetal calf serum), 2 mM glutamine, 100 U/ml of penicillin, 100 μg/ml of streptomycin and 25 ng/ml of Fungizone to DMEM (Dulbecco modified minimum essential medium)] was added to the cells to wash them once. The cells were suspended in the medium, and the suspension was poured into a Petri dish and cultured under conditions of 5% CO2 and 37° C. Cells adhered to the bottom of the Petri dish were provided as synovial cells. The cells (1×10^5 cells/ml) were poured in 1-ml portions into wells of a 24-well plate and cultured under conditions of 5% CO2 and 37° C. After the cells were proliferated to an extent that they covered almost the entire surface of each well, the medium was changed to an SFM-101 medium (product of Nissui Seiyaku K.K.) containing 1% FCS. […] Furthermore, 10 μl (end concentration: 200 pg/ml) of a solution of IL-1βand 10 μl (end concentration: 10 μM) of arachidonic acid were added to conduct culture for 22 hours under conditions of 5% CO2 and 37° C. After the culture, the supernatant liquid thereof was collected and filtered through a membrane filter (pore size: 0.22 μm, MILLIPORE), thereby determining the amount of prostaglandin E2 in the filtrate in accordance with the enzyme immunoassay. The effect of each test agent on the production of prostaglandin E2 by the human synovial cells was determined by the average value of the amounts of prostaglandin E2 produced, which were obtained by repeating the above process 3 times, and the amount of prostaglandin E2 produced by using DMSO in place of the test agent to conduct the same treatment as described above.

[2] = tested on: Production of Thromboxane B2 in Platelet; test: Effect on production of thromboxane B2 in platelet; format: cell-based, rabbit; conditions: for inhibitory effect on the production of thromboxane B2 (in words): 0.001-100 μM; for inhibition at 0.001 µM / inhibition at 0.01 µM / inhibition at 0.1 µM / inhibition at 1 µM / inhibition at 10 µM / inhibition at 100 µM: Oryctolagus cuniculus, Platelet, rabbit platelets, read-out: Percent inhibition of thromboxane B2
Procedure: (Effect of 4'-Hydroxydiclofenac on Production of Thromboxane B2 in Platelet)
Fresh blood [adding 1 volume of ACD (acid-citrate dextrose; consisting of 65 mM citric acid, 85 mM sodium citrate and 110 mM glucose) to 9 volumes of the blood] collected from the heart of a rabbit under Nembutal anesthesia was centrifuged at 200 ×g for 10 minutes to collect the supernatant liquid thereof. The supernatant liquid was centrifuged at 700 ×g for 10 minutes, and precipitated platelets were suspended in an isotonic trishydrochloric acid buffer solution [50 mM tris(hydroxymethyl)aminomethane, 150 mM NaCl, 1 mM EDTA (ethylenediaminetetraacetic acid) and 5 mM glucose; pH: 7.2]. The suspension was further centrifuged at 700 ×g for 10 minutes and washed. […] The thus-adjusted platelet suspension was poured in 1-ml portions into test tubes. […] After the incubation, 10 μl (end concentration: 2 mM) of 200 mM CaCl2 and 5 μl (end concentration: 5 μM) of 1 mM arachidonic acid were added, followed by incubation for additional 5 minutes. After the incubation, the test tube was transferred to an ice bath to stop the reaction. The test tube was centrifuged at 1,500 ×g and 4° C. for 10 minutes. After the supernatant liquid thereof was filtered through a membrane filter (pore size: 0.22 μm, MILLIPORE), the amount of thromboxane B2 in the filtrate was determined in accordance with the enzyme immunoassay. The effect of each test agent on the production of thromboxane B2 in the platelet was determined by the average value of the amounts of thromboxane B2 produced, which were obtained by repeating the above process 3 times, and the amount of thromboxane B2 produced by using DMSO in place of the test agent to conduct the same treatment as described above.

cyclooxygenase 1 = target: T1, cyclooxygenase 1 (Ovis aries, UniProt P05979); test: biochemical; conditions: for Inhibitory effect on cyclooxygenase 1 (in words): 0.01-100 μM
T1 sequence (P05979 25-600): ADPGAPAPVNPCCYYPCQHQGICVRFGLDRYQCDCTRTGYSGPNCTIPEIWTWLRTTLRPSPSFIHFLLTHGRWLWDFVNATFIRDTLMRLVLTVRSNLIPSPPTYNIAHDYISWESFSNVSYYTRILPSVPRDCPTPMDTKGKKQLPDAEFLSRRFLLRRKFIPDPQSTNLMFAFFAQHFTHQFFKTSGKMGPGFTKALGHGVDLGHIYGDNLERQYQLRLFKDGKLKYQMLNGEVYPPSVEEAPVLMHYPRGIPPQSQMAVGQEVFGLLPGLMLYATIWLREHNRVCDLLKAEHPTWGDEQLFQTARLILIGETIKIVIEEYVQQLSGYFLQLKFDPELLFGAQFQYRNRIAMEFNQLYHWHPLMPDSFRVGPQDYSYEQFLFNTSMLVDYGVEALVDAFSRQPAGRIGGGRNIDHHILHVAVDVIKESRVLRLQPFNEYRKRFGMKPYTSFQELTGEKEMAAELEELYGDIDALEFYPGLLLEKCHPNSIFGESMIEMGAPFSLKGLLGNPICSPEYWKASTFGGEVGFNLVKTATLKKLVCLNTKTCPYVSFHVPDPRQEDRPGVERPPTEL
Procedure: (§1) (Specific Inhibitory Effect on Cyclooxygenase)
(§2) After the incubation, 2 μl of a 5 mM solution of arachidonic acid (dissolved in ethanol) were added (end concentration: 100 μM), followed by incubation for additional 5 minutes. After the incubation for 5 minutes, 10 μl of a 22 mM solution of ferrous chloride were added, and the resultant mixture was cooled down to 0° C. to stop the reaction. After stopping the reaction, the reaction mixture was centrifuged at 10,000×g for 5 minutes to determine the amount of prostaglandin E2 in the supernatant liquid thereof in accordance with the enzyme immunoassay. The cyclooxygenase-inhibiting effect of each test agent was determined by the average value of the amounts of prostaglandin E2 produced, which were obtained by repeating the above process twice, and the amount of prostaglandin E2 produced by using DMSO in place of the test agent to conduct the same treatment as described above.

cyclooxygenase 2 = target: T2, cyclooxygenase 2 (Homo sapiens, UniProt P35354)
T2 sequence (P35354 18-604): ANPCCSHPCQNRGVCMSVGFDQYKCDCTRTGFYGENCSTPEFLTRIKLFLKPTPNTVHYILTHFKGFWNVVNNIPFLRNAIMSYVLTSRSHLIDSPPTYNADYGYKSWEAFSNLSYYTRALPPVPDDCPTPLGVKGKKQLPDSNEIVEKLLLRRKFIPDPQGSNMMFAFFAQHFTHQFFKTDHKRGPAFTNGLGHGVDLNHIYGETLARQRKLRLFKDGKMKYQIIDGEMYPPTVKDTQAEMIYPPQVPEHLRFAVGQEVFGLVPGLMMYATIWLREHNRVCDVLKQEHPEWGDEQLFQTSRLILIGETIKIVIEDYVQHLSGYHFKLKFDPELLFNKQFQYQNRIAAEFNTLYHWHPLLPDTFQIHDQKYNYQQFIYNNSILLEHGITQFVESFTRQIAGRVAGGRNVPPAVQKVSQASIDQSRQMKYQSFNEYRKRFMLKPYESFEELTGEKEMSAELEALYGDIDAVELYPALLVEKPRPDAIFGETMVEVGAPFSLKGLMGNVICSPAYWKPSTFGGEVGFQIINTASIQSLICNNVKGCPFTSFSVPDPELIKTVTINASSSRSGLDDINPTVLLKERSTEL
Procedure: as §1, §2

[3] = read-out: Percent inhibition of cyclooxygenase 1

Structure (SMILES)	inhibition at 0.001 µM [1] [%]	inhibition at 0.01 µM [1] [%]	inhibition at 0.1 µM [1] [%]	inhibition at 1 µM [1] [%]	inhibition at 10 µM [1] [%]	inhibition at 100 µM [1] [%]	inhibitory effect on the production of thromboxane B2 (in words) [2]	inhibition at 0.001 µM [2] [%]	inhibition at 0.01 µM [2] [%]	inhibition at 0.1 µM [2] [%]	inhibition at 1 µM [2] [%]	inhibition at 10 µM [2] [%]	inhibition at 100 µM [2] [%]	Inhibitory effect on cyclooxygenase 1 (in words) (cyclooxygenase 1)	other results
O=C(O)Cc1ccccc1Nc1c(Cl)cccc1Cl [Diclofenac]	14	61	99	100	100	100	an inhibitory effect on the production of thromboxane B2 is recognized	46	70	68	77	93	99	Inhibitory effects on cyclooxygenase 1 and cyclooxygenase 2 are recognized	inhibition at 0.01 µM (cyclooxygenase 1; [3]): 25%; inhibition at 0.1 µM (cyclooxygenase 1; [3]): 25%; inhibition at 1 µM (cyclooxygenase 1; [3]): 38%; inhibition at 10 µM (cyclooxygenase 1; [3]): 57%; inhibition at 100 µM (cyclooxygenase 1; [3]): 87%
COc1ccc2c(c1)c(CC(=O)O)c(C)n2C(=O)c1ccc(Cl)cc1 [Indomethacin]	-3	5	62	100	100	100	an inhibitory effect on the production of thromboxane B2 is recognized	2	50	76	77	78	78	–	–
O=C(O)Cc1ccccc1Nc1c(Cl)cc(O)cc1Cl [4'-Hydroxydiclofenac, 2-(2,6-dichloro-4-hydroxyanilino)phenylacetic acid]	-3	0	35	100	100	100	clearly weak compared with indomethacin	-25	-25	0	7	15	77	no inhibitory effect on cyclooxygenase 1 is recognized	Percent inhibition of cyclooxygenase 2 (cyclooxygenase 2; 0.01 μM): 21%; Percent inhibition of cyclooxygenase 2 (cyclooxygenase 2; 0.1 μM): 18%; Percent inhibition of cyclooxygenase 2 (cyclooxygenase 2; 1 μM): 22%; Percent inhibition of cyclooxygenase 2 (cyclooxygenase 2; 10 μM): 82%; Percent inhibition of cyclooxygenase 2 (cyclooxygenase 2; 100 μM): 90%; Inhibitory effect on cyclooxygenase 2 (in words) (cyclooxygenase 2; 0.01-100 μM): only an inhibitory effect on the cyclooxygenase 2 activity is recognized; inhibitory effect on prostaglandin E2 (in words) ([1]; 0.001-100 μM, compared with indomethacin): almost comparable to indomethacin; Percent inhibition of cyclooxygenase 1 (cyclooxygenase 1; 0.01 μM): 0%; Percent inhibition of cyclooxygenase 1 (cyclooxygenase 1; 0.1 μM): 0%; Percent inhibition of cyclooxygenase 1 (cyclooxygenase 1; 1 μM): 13%; Percent inhibition of cyclooxygenase 1 (cyclooxygenase 1; 10 μM): 3%; Percent inhibition of cyclooxygenase 1 (cyclooxygenase 1; 100 μM): 15%
